In paper PMC6891263, “Alkaloids with Nitric Oxide Inhibitory Activities from the Roots of Isatis tinctoria” (Molecules, 2019):

Legend:
RAW264.7 cells = assay: Cytotoxicity by Cell Counting Kit-8 (CCK-8); settings: CCK-8, tested at 25, 50 and 100 μM
Method: Inhibitory Assay of NO Production
Cytotoxicity was examined using the Cell Counting Kit-8 (CCK-8). RAW264.7 cells were taken from logarithmic growth stage and the cell density reached above 80%. And then, the cells were inoculated on 96-well cell culture plates at […], with 3 ×10^4 cells per well, cultured overnight at 37 °C with 5% CO 2. After 24h, the culture medium in the 96-well plate was discarded, the solution was changed and different concentrations (25 μM, 50 μM and 100 μM) of drugs were added. The absorbance at 450 nm was measured using a microplate reader (Thermo Fisher Scientific). Viability was defined as the ratio (expressed as a percentage) of absorbance values of treated cells to untreated cells.
(§1) Compounds 1-23 were dissolved in dimethyl sulfoxide (DMSO) and diluted with complete medium to 6 degrees of concentration […]
were maintained in Dulbecco’s modified Eagle’s medium (high-glucose condition) supplemented with 10% fetal calf serum, 100 U/mL penicillin, and 100 μg/mL streptomycin at 37 °C in 5% CO 2. […]

[1] = system: nitric oxide (NO) production, LPS-stimulated RAW264.7 macrophages; assay: Inhibitory assay of NO production (Griess reagent) in LPS-stimulated RAW264.7 macrophages; assay type: cell-based; settings: LPS 100 ng/mL for 24 h, 30 min pretreatment, mean ± SD (n = 3)
Method: NO is a messenger molecule that is widespread in cells and can affect a variety of physiological and pathological processes. The production of NO causes tissue damage and can trigger a variety of inflammatory diseases. LPS induces the release of NO from RAW264.7 cells by detecting the release of NO widely used to investigate the anti-inflammatory effects of the compounds [2, 10, 40]. […]
Inhibitory Assay of NO Production […]
as §1
were maintained in Dulbecco’s modified Eagle’s medium (high-glucose condition) supplemented with 10% fetal calf serum, 100 U/mL penicillin, and 100 μg/mL streptomycin at 37 °C in 5% CO 2. RAW 264.7 cells were pretreated with each tested compound for 30 min, and then stimulated with lipopolysaccharide (LPS) (100 ng/mL) for 24 h. Aminoguanidine hydrochloride (100 μM) was used as a positive control. The NO production was measured using the Griess reagent. Briefly, the cell culture supernatant was reacted with equal volumes of Griess reagent in a 96-well plate for 10 min, and then the absorbance at 540 nm was measured by a plate reader. All experiments were performed in triplicate. All tested compounds were prepared as stock solutions with a concentration of 10 mM in DMSO. […]

[2] = Mus musculus, RAW264.7, RAW 264.7 cell line

Molecule: O=c1c2ccccc2nc2n1CCC(c1c[nH]c3ccccc13)=C2 [Compound 3, Isatisindigoticanine G]
- Cytotoxicity (RAW264.7 cells): >100 µM
- IC50 [1, 2]: > 100 µM

Molecule: COc1cccc2[nH]c(=O)cc(-c3cc4ccccc4[nH]3)c12 [Compound 2, Isatisindigoticanine F]
- Cytotoxicity (RAW264.7 cells): >100 µM
- IC50 [1, 2]: > 100 µM

Molecule: Cl.N=C(N)NN [AG, aminoguanidine hydrochloride, reference compound]
- Cytotoxicity (RAW264.7 cells): >100 µM
- IC50 ([1]; RAW 264.7 cell line): 22.7 ± 0.4 µM

Molecule: O=C(O)CCCn1c(=O)[nH]c2ccccc2c1=O [Compound 12, 4-(2,4-dioxo-1,2-dihydroquinazolin-3(4H)-yl)butanoic acid]
- Cytotoxicity (RAW264.7 cells): >100 µM
- IC50 [1, 2]: > 100 µM

Molecule: O=c1[nH]c2ccccc2c(=O)n1CCCCO [Compound 11, indiforine C]
- Cytotoxicity (RAW264.7 cells): >100 µM
- IC50 [1, 2]: > 100 µM

Molecule: 2-(1H-indol-2-yl)-4(3H)-quinolinone [Compound 8]
- IC50 ([1]; RAW 264.7 cell line): > 100 µM

Molecule: C=CCCc1nc2ccccc2c(=O)[nH]1 [Compound 7, 2-(but-3-en-1-yl)-4(3H)-quinazolinone]
- Cytotoxicity (RAW264.7 cells): >100 µM
- IC50 [1, 2]: > 100 µM

Molecule: O=c1cc(-c2ccc(O)cc2)c2cc(O)ccc2[nH]1 [Compound 1, Isatisindigoticanine E]
- Cytotoxicity (RAW264.7 cells): >100 µM
- IC50 [1, 2]: > 100 µM

Molecule: Oc1ccnc2ccccc12 [Compound 20, 4(1H)-quinolinone]
- Cytotoxicity (RAW264.7 cells): >100 µM

Molecule: Nc1cc(C(=O)O)c2ccccc2n1 [Compound 19, 2-amino-4-quinolinecarboxylic acid]
- Cytotoxicity (RAW264.7 cells): >100 µM
- IC50 [1, 2]: > 100 µM

Molecule: O=C(O)CCn1c(=O)[nH]c2ccccc2c1=O [Compound 10, 3-(2,4-dioxo-1,2-dihydroquinazolin-3(4H)-yl)propanoic acid]
- Cytotoxicity (RAW264.7 cells): >100 µM
- IC50 [1, 2]: > 100 µM

Molecule: O=c1cc(-c2ccc(O)cc2)c2ccccc2[nH]1 [Compound 4, 4-p-hydroxyphenyl-2(1H)-quinolinone]
- Cytotoxicity (RAW264.7 cells): >100 µM
- IC50 [1, 2]: > 100 µM

Molecule: Cc1nc2ccccc2c(=O)[nH]1 [Compound 17, 2-methyl-4(3H)-quinazolinone]
- Cytotoxicity (RAW264.7 cells): >100 µM

Molecule: Cc1nc(O)nc2ccccc12 [Compound 16, 4-methyl-1,2-dihydro-2-oxoquinazoline]
- Cytotoxicity (RAW264.7 cells): >100 µM
- IC50 [1, 2]: > 100 µM

Molecule: O=c1c2ccccc2ncn1-c1ccccc1O [Compound 14, 3-(2-hydroxyphenyl)-4(3H)-quinazolinone]
- Cytotoxicity (RAW264.7 cells): >100 µM
- IC50 [1, 2]: > 100 µM

Molecule: NC(=O)C(c1[nH]c2ccccc2c1OC1OC(CO)C(O)C(O)C1O)c1c[nH]c2ccccc12 (centres unmarked) [Compound 23, Isatindigoside D]
- Cytotoxicity (RAW264.7 cells): >100 µM
- IC50 [1, 2]: > 100 µM

Molecule: O=C(O)c1cnc2ccccc2c1O [Compound 21, 4(1H)-quinolone-3-carboxylic acid]
- Cytotoxicity (RAW264.7 cells): >100 µM
- IC50 [1, 2]: > 100 µM

Molecule: COC(=O)CCCn1c(=O)[nH]c2ccccc2c1=O [Compound 13, methyl 4-(2,4-dioxo-1,2-dihydroquinazolin-3(4H)-yl)butanoate]
- Cytotoxicity (RAW264.7 cells): >100 µM
- IC50 [1, 2]: > 100 µM

Molecule: O=c1[nH]c(-c2ccccc2O)nc2ccccc12 [Compound 6, 2-(2-hydroxyphenyl)-4(3H)-quinazolinone]
- Cytotoxicity (RAW264.7 cells): >100 µM
- IC50 [1, 2]: > 100 µM

Molecule: COc1ccc2nc(-c3cc4ccccc4[nH]3)[nH]c(=O)c2c1 [Compound 5, 2-(1H-indol-2-yl)-6-methoxy-4(3H)-quinazolinone]
- Cytotoxicity (RAW264.7 cells): >100 µM
- IC50 [1, 2]: > 100 µM

Molecule: O=C(O)c1ccccc1-n1cnc2ccccc2c1=O [Compound 15, 3-(2-carboxyphenyl)-4(3H)-quinazolinone]
- Cytotoxicity (RAW264.7 cells): >100 µM
- IC50 [1, 2]: 5 ± 1.3 µM

Molecule: Cc1c(O)c2ccccc2[nH]c1=O [Compound 18, 4-hydroxy-3-methyl-2(1H)-quinolinone]
- Cytotoxicity (RAW264.7 cells): >100 µM
- IC50 [1, 2]: > 100 µM
